Results as given in PubChem BioAssay (NCI).
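Cells were grown in 96-well plates and exposed to each compound for 48 hours at five concentrations; endpoints were interpolated linearly between bracketing concentrations, or set to the highest concentration if not reached. Here, GI50 denotes the concentration required for 50% inhibition of growth. The concentration for full growth arrest is given as TGI.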 *1 amine or outer side, *2 acyl side, *3 side chain or, on linkers, in order; H or OH if unused. Where a SMILES comes first, the peptide text is derived from it. CO = O=C([*:1])[*:2]

Experiments:
Experiment in all cases: DTP human tumour cell line panel, 48 h
CCRF-CEM leukemia = system: CCRF-CEM leukemia
HCC-2998 colon = system: HCC-2998 colon
HL-60(TB) leukemia = system: HL-60(TB) leukemia
M14 melanoma = system: M14 melanoma
MALME-3M melanoma = system: MALME-3M melanoma
NCI-H460 lung = system: NCI-H460 lung
SF-539 CNS = system: SF-539 CNS
SK-OV-3 ovarian = system: SK-OV-3 ovarian
MDA-MB-231 breast = system: MDA-MB-231 breast
SNB-75 CNS = system: SNB-75 CNS

Compound | TGI (CCRF-CEM leukemia) | TGI (HCC-2998 colon) | TGI (HL-60(TB) leukemia) | TGI (M14 melanoma) | TGI (MALME-3M melanoma) | TGI (NCI-H460 lung) | TGI (SF-539 CNS) | TGI (SK-OV-3 ovarian) | GI50 (CCRF-CEM leukemia) | GI50 (HCC-2998 colon) | GI50 (M14 melanoma) | GI50 (MDA-MB-231 breast) | TGI (MDA-MB-231 breast) | GI50 (NCI-H460 lung) | GI50 (SF-539 CNS) | GI50 (SK-OV-3 ovarian) | GI50 (SNB-75 CNS) | TGI (SNB-75 CNS) | GI50 (MALME-3M melanoma) | GI50 (HL-60(TB) leukemia)
NC1=NN(c2ccccc2)C(=O)C1C(=O)C(=O)Nc1cccc(C(F)(F)F)c1 (stereo unspecified) | > 100 µM | > 100 µM | > 100 µM | > 100 µM | > 100 µM | > 100 µM | > 100 µM | > 100 µM | – | – | – | – | – | – | – | – | – | – | – | –
N#Cc1c(N)nc(N2CCOCC2)c(C#N)c1-c1cccc(O)c1 | > 100 µM | > 100 µM | – | > 100 µM | – | > 100 µM | > 100 µM | > 100 µM | > 100 µM | 68.5 µM | > 100 µM | 71.2 µM | > 100 µM | 93.2 µM | > 100 µM | 70.9 µM | 17.2 µM | 70.6 µM | – | –
N=c1oc2cc(O)c(O)cc2cc1C(N)=O | > 100 µM | > 100 µM | – | > 100 µM | > 100 µM | > 100 µM | > 100 µM | > 100 µM | – | – | – | – | – | – | – | – | – | 96.3 µM | – | –
Cc1ccc(C2=NN(C)COC2C(F)(F)F)cc1 (stereo unspecified) | > 100 µM | > 100 µM | > 100 µM | > 100 µM | > 100 µM | > 100 µM | > 100 µM | > 100 µM | – | – | – | – | – | – | – | – | – | > 100 µM | – | –
O=C(/C=C\c1cccc2ccccc12)c1ccc(Br)cc1 | 50.6 µM | 31.7 µM | 43 µM | 32 µM | 81.6 µM | 37.2 µM | 41.9 µM | 93.6 µM | – | – | – | – | – | – | – | – | – | 56.3 µM | – | –
C/C(=N\[N+](C)(C)C)C(c1ccccc1)C1(c2ccccc2)C(c2ccccc2)=C1c1ccccc1 (stereo unspecified) | > 100 µM | > 100 µM | > 100 µM | > 100 µM | > 100 µM | > 100 µM | > 100 µM | > 100 µM | – | – | – | – | – | – | – | – | – | – | – | –
CCOC(=O)C(=O)Nc1ccc([N+](=O)[O-])cc1C#N | > 100 µM | > 100 µM | > 100 µM | > 100 µM | > 100 µM | > 100 µM | > 100 µM | > 100 µM | – | – | – | – | – | – | – | – | – | – | – | –
CCC[CH2][Sn]([CH2]CCC)([O]C(=O)c1cccc(F)c1F)[O][Sn]([CH2]CCC)([CH2]CCC)[O]C(=O)c1cccc(F)c1F | – | 1.92 µM | – | 0.891 µM | 0.284 µM | 2.62 µM | 0.722 µM | 2.23 µM | – | 0.617 µM | 0.274 µM | 0.218 µM | 1.19 µM | 1.3 µM | 0.208 µM | 0.915 µM | 0.317 µM | 1.52 µM | 0.118 µM | –
O=C1OC2(c3ccccc31)c1cc(I)c(O)c(I)c1Oc1c2cc(I)c(O)c1I | > 100 µM | – | – | > 100 µM | > 100 µM | > 100 µM | > 100 µM | > 100 µM | – | – | – | – | > 100 µM | – | – | – | – | > 100 µM | – | –
Cc1ccc(NC(=O)/C(=N/NC(=O)CC#N)C2C(=O)N(c3ccccc3)N=C2N)cc1C (stereo unspecified) | > 100 µM | > 100 µM | > 100 µM | > 100 µM | > 100 µM | > 100 µM | > 100 µM | > 100 µM | – | – | – | – | – | – | – | – | – | > 100 µM | – | –
COc1ccc(C2c3cc4c(cc3OC(O)(CO)C2C(=O)O)OCO4)c(OC)c1OC (stereo unspecified) (tested in a mixture with another compound) | > 100 µM | – | > 100 µM | > 100 µM | > 100 µM | > 100 µM | > 100 µM | > 100 µM | – | – | – | – | – | – | – | – | – | > 100 µM | – | –
CC1(C)OC(=O)C=C(O)O1.CC1(C)OC(=O)C=C(O)O1.CCO.Oc1ccc2c(c1)CCC2.[Ti] | > 100 µM | – | > 100 µM | > 100 µM | > 100 µM | > 100 µM | > 100 µM | > 100 µM | > 100 µM | – | > 100 µM | – | – | > 100 µM | > 100 µM | > 100 µM | > 100 µM | > 100 µM | > 100 µM | > 100 µM
CC1CC(C)C(=O)C(C(=O)CC2CC(=O)NC2=O)C1 (stereo unspecified) | > 100 µM | > 100 µM | > 100 µM | > 100 µM | > 100 µM | > 100 µM | > 100 µM | > 100 µM | – | – | – | – | – | – | – | – | – | > 100 µM | – | –
COc1ccc(C(=O)O)c2c(=O)c3ccccc3[nH]c12 | > 31.6 µM | > 100 µM | > 100 µM | > 31.6 µM | > 100 µM | > 100 µM | > 100 µM | > 100 µM | – | – | – | – | – | – | – | – | – | – | – | –
CC(C)C(NC(=O)C(CCCN=C(N)N)NC(=O)NC(Cc1ccccc1)C(=O)O)C(=O)NC(C=O)CCCN=C(N)N (stereo not drawn) ({Phe-CO}-Arg-Val-Arg-aldehyde; configuration not given here) | – | > 5 µM | – | > 5 µM | > 5 µM | > 5 µM | > 5 µM | > 5 µM | – | 0.0202 µM | > 5 µM | > 5 µM | > 5 µM | > 5 µM | > 5 µM | > 5 µM | > 5 µM | > 5 µM | > 5 µM | –
